Organism: Rattus norvegicus
Test: Open TG-GATES - Regimen: Daily Repeat
Format: toxicity, organism-based, Sprague-Dawley
Set-up: regimen Daily Repeat, gender Male, age 6 weeks
Conditions: in vivo, po, route gavage; for Eos / Hb / Ht / Lym / MCH / MCHC / MCV / Mono / Neu / Plat / RBC / Ret / WBC / APTT / Bas / PT: tissue Blood; for KIDNEY_L / KIDNEY_R / KIDNEY_TOTAL: tissue Kidney; for LIVER: tissue Liver; for ALT / AST / BUN / CRE / Ca / DBIL / GLC / IP / K / LDH / Na / PL / RALB / TBIL / TC / TG / TP / gamma-GTP / ALP: tissue Plasma
[1] = 300 mg/kg, 72 h, dose level Middle, time 3 day
[2] = 300 mg/kg, […], dose level Middle, time 7 day
[3] = 300 mg/kg, […], dose level Middle, time 14 day
[4] = 300 mg/kg, […], dose level Middle, time 28 day
[5] = 1000 mg/kg, 72 h, dose level High, time 3 day
[6] = 1000 mg/kg, […], dose level High, time 7 day
[7] = 1000 mg/kg, […], dose level High, time 14 day
[8] = 1000 mg/kg, […], dose level High, time 28 day

C[C@H](CS)C(=O)N1CCC[C@H]1C(=O)O [CAPTOPRIL]
Eos [1]: 1.2%
Hb [1]: 13.3 g/dL
Ht [1]: 40.2%
Lym [1]: 79.4%
MCH [1]: 21.4 pg
MCHC [1]: 33.1%
MCV [1]: 64.5 fL
Mono [1]: 4.2%
Neu [1]: 15.2%
Plat [1]: 111.4 x10_4/uL
RBC [1]: 623.2 x10_4/ul
Ret [1]: 7.7%
WBC [1]: 92.7 x10_2/uL
KIDNEY_L [1]: 1.1 g
KIDNEY_R [1]: 1.1 g
KIDNEY_TOTAL [1]: 2.2 g
LIVER [1]: 12.3 g
ALT [1]: 40.6 IU/L
AST [1]: 61 IU/L
BUN [1]: 17.8 mg/dL
CRE [1]: 0.5 mg/dL
Ca [1]: 11.5 mg/dL
DBIL [1]: 0.022 mg/dL
GLC [1]: 195.4 mg/dL
IP [1]: 8.8 mg/dL
K [1]: 5.1 meq/L
LDH [1]: 89 IU/L
Na [1]: 136 meq/L
PL [1]: 143.4 mg/dL
RALB [1]: 4.2 g/dL
TBIL [1]: 0.4 mg/dL
TC [1]: 76 mg/dL
TG [1]: 73.8 mg/dL
TP [1]: 6.1 g/dL
gamma-GTP [1]: 0.8 IU/L
TERMINAL_BW [2]: 259.5 g
TERMINAL_BW [3]: 288.5 g
TERMINAL_BW [4]: 322 g
APTT [2]: 16.4 s
Bas [2]: 0%
Eos [2]: 1.2%
Hb [2]: 13.3 g/dL
Ht [2]: 39.7%
Lym [2]: 85.2%
MCH [2]: 21.2 pg
MCHC [2]: 33.4%
MCV [2]: 63.6 fL
Mono [2]: 4.6%
Neu [2]: 9.2%
Plat [2]: 127.2 x10_4/uL
RBC [2]: 625.8 x10_4/ul
Ret [2]: 4.7%
WBC [2]: 127.6 x10_2/uL
APTT [3]: 16.6 s
Bas [3]: 0%
Eos [3]: 1%
Hb [3]: 13 g/dL
Ht [3]: 38.6%
Lym [3]: 83.2%
MCH [3]: 20.5 pg
MCHC [3]: 33.7%
MCV [3]: 60.7 fL
Mono [3]: 4%
Neu [3]: 11.4%
PT [3]: 11.7 s
Plat [3]: 128.4 x10_4/uL
RBC [3]: 636.4 x10_4/ul
Ret [3]: 4.4%
WBC [3]: 183.2 x10_2/uL
APTT [4]: 15.5 s
Bas [4]: 0%
Eos [4]: 1%
Hb [4]: 14 g/dL
Ht [4]: 41.6%
Lym [4]: 82.2%
MCH [4]: 19.3 pg
MCHC [4]: 33.7%
MCV [4]: 57.4 fL
Mono [4]: 3.6%
Neu [4]: 13.6%
PT [4]: 11.9 s
Plat [4]: 112.2 x10_4/uL
RBC [4]: 724.6 x10_4/ul
Ret [4]: 2.9%
WBC [4]: 165.2 x10_2/uL
KIDNEY_L [2]: 1.2 g
KIDNEY_R [2]: 1.2 g
KIDNEY_TOTAL [2]: 2.3 g
KIDNEY_L [3]: 1.2 g
KIDNEY_R [3]: 1.3 g
KIDNEY_TOTAL [3]: 2.5 g
KIDNEY_L [4]: 1.3 g
KIDNEY_R [4]: 1.4 g
KIDNEY_TOTAL [4]: 2.7 g
LIVER [2]: 11.7 g
LIVER [3]: 12.4 g
LIVER [4]: 12.4 g
ALT [2]: 32.8 IU/L
AST [2]: 63.2 IU/L
BUN [2]: 20.6 mg/dL
CRE [2]: 0.6 mg/dL
Ca [2]: 11 mg/dL
DBIL [2]: 0.006 mg/dL
GLC [2]: 192 mg/dL
IP [2]: 8 mg/dL
K [2]: 4.8 meq/L
LDH [2]: 109.6 IU/L
Na [2]: 138.2 meq/L
PL [2]: 132 mg/dL
RALB [2]: 3.8 g/dL
TBIL [2]: 0.3 mg/dL
TC [2]: 72.8 mg/dL
TG [2]: 73.4 mg/dL
TP [2]: 5.8 g/dL
gamma-GTP [2]: 2.2 IU/L
ALP [3]: 824.2 IU/L
ALT [3]: 40.2 IU/L
AST [3]: 66.6 IU/L
BUN [3]: 24.4 mg/dL
CRE [3]: 0.6 mg/dL
DBIL [3]: 0.012 mg/dL
GLC [3]: 203.6 mg/dL
IP [3]: 7.8 mg/dL
K [3]: 4.6 meq/L
LDH [3]: 86.6 IU/L
Na [3]: 135.2 meq/L
PL [3]: 151 mg/dL
RALB [3]: 3.8 g/dL
TBIL [3]: 0.3 mg/dL
TC [3]: 81.4 mg/dL
TG [3]: 67 mg/dL
TP [3]: 5.9 g/dL
gamma-GTP [3]: 1.4 IU/L
ALP [4]: 617.4 IU/L
ALT [4]: 35.4 IU/L
AST [4]: 65.8 IU/L
BUN [4]: 30.8 mg/dL
CRE [4]: 0.6 mg/dL
DBIL [4]: 0.024 mg/dL
GLC [4]: 191.2 mg/dL
IP [4]: 7.4 mg/dL
K [4]: 4.6 meq/L
Na [4]: 136.8 meq/L
PL [4]: 156.6 mg/dL
RALB [4]: 4 g/dL
TBIL [4]: 0.4 mg/dL
TC [4]: 84.8 mg/dL
TG [4]: 79 mg/dL
TP [4]: 6.1 g/dL
gamma-GTP [4]: 0.4 IU/L
TERMINAL_BW [5]: 233.8 g
APTT [5]: 16.1 s
Bas [5]: 0%
Eos [5]: 1.2%
Hb [5]: 13.3 g/dL
Ht [5]: 39.9%
Lym [5]: 80.6%
MCH [5]: 21.3 pg
MCHC [5]: 33.2%
MCV [5]: 64 fL
Mono [5]: 5.2%
Neu [5]: 13.4%
PT [5]: 11.1 s
Plat [5]: 122.3 x10_4/uL
RBC [5]: 623.8 x10_4/ul
Ret [5]: 6.2%
KIDNEY_L [5]: 1.1 g
KIDNEY_R [5]: 1.1 g
KIDNEY_TOTAL [5]: 2.2 g
LIVER [5]: 11 g
ALP [5]: 971.8 IU/L
ALT [5]: 40.6 IU/L
AST [5]: 63 IU/L
BUN [5]: 22.6 mg/dL
CRE [5]: 0.5 mg/dL
Ca [5]: 11.2 mg/dL
DBIL [5]: 0.016 mg/dL
GLC [5]: 193.4 mg/dL
IP [5]: 8.2 mg/dL
K [5]: 5 meq/L
LDH [5]: 90.4 IU/L
Na [5]: 135.2 meq/L
PL [5]: 148.8 mg/dL
RALB [5]: 3.9 g/dL
TBIL [5]: 0.4 mg/dL
TC [5]: 82.4 mg/dL
TG [5]: 93.4 mg/dL
TP [5]: 5.8 g/dL
gamma-GTP [5]: 1.4 IU/L
TERMINAL_BW [6]: 249.2 g
TERMINAL_BW [7]: 310.3 g
TERMINAL_BW [8]: 359.7 g
APTT [6]: 16.3 s
Bas [6]: 0%
Eos [6]: 1.2%
Hb [6]: 12.7 g/dL
Ht [6]: 37.9%
Lym [6]: 82.4%
MCH [6]: 21.3 pg
MCHC [6]: 33.5%
MCV [6]: 63.6 fL
Mono [6]: 4.6%
Neu [6]: 11.8%
Plat [6]: 123.8 x10_4/uL
RBC [6]: 595.6 x10_4/ul
Ret [6]: 4%
WBC [6]: 141 x10_2/uL
APTT [7]: 16.7 s
Bas [7]: 0%
Eos [7]: 1.2%
Hb [7]: 12.7 g/dL
Ht [7]: 37.6%
Lym [7]: 81.8%
MCH [7]: 20.6 pg
MCHC [7]: 33.6%
MCV [7]: 61.4 fL
Mono [7]: 4.6%
Neu [7]: 12.4%
PT [7]: 11.5 s
Plat [7]: 122.1 x10_4/uL
RBC [7]: 614 x10_4/ul
Ret [7]: 3.1%
WBC [7]: 160.2 x10_2/uL
APTT [8]: 16.4 s
Bas [8]: 0%
Eos [8]: 1.2%
Hb [8]: 13.4 g/dL
Ht [8]: 40.3%
Lym [8]: 90.2%
MCH [8]: 20 pg
MCHC [8]: 33.2%
MCV [8]: 60.1 fL
Mono [8]: 2.8%
Neu [8]: 6%
PT [8]: 11.9 s
Plat [8]: 96.2 x10_4/uL
RBC [8]: 671.8 x10_4/ul
Ret [8]: 3.7%
WBC [8]: 236.5 x10_2/uL
KIDNEY_L [6]: 1.2 g
KIDNEY_R [6]: 1.3 g
KIDNEY_TOTAL [6]: 2.5 g
KIDNEY_L [7]: 1.3 g
KIDNEY_R [7]: 1.4 g
KIDNEY_TOTAL [7]: 2.7 g
KIDNEY_L [8]: 1.5 g
KIDNEY_R [8]: 1.6 g
KIDNEY_TOTAL [8]: 3.1 g
LIVER [7]: 13.5 g
LIVER [8]: 15.1 g
ALP [6]: 755.6 IU/L
ALT [6]: 32.2 IU/L
AST [6]: 53.8 IU/L
BUN [6]: 46.4 mg/dL
CRE [6]: 0.6 mg/dL
DBIL [6]: 0.012 mg/dL
GLC [6]: 192.8 mg/dL
IP [6]: 7.7 mg/dL
K [6]: 5.2 meq/L
LDH [6]: 78.6 IU/L
Na [6]: 136.8 meq/L
PL [6]: 141.4 mg/dL
RALB [6]: 3.5 g/dL
TBIL [6]: 0.4 mg/dL
TC [6]: 88.2 mg/dL
TG [6]: 52.6 mg/dL
TP [6]: 5.6 g/dL
gamma-GTP [6]: 2 IU/L
ALP [7]: 859.4 IU/L
ALT [7]: 35.2 IU/L
AST [7]: 58.8 IU/L
BUN [7]: 38.8 mg/dL
CRE [7]: 0.6 mg/dL
DBIL [7]: 0.008 mg/dL
GLC [7]: 191.8 mg/dL
IP [7]: 7.8 mg/dL
K [7]: 5 meq/L
LDH [7]: 78.2 IU/L
Na [7]: 133.8 meq/L
PL [7]: 151.8 mg/dL
RALB [7]: 3.7 g/dL
TBIL [7]: 0.4 mg/dL
TC [7]: 80.6 mg/dL
TG [7]: 85.6 mg/dL
TP [7]: 5.7 g/dL
gamma-GTP [7]: 1.2 IU/L
ALP [8]: 768 IU/L
ALT [8]: 45 IU/L
AST [8]: 71.5 IU/L
BUN [8]: 32 mg/dL
CRE [8]: 0.6 mg/dL
DBIL [8]: 0.015 mg/dL
GLC [8]: 207 mg/dL
IP [8]: 7.7 mg/dL
K [8]: 4.6 meq/L
LDH [8]: 110.2 IU/L
Na [8]: 135.8 meq/L
PL [8]: 127.8 mg/dL
RALB [8]: 3.6 g/dL
TBIL [8]: 0.5 mg/dL
TC [8]: 69 mg/dL
TG [8]: 72.8 mg/dL
TP [8]: 5.7 g/dL
gamma-GTP [8]: 0.8 IU/L

From ChEMBL document CHEMBL3885861, “Open TG-GATES”
